Where a name gives a salt, the structure may show the parent alone. Read-outs that look alike come from different tables or passages of the source.

Holding throughout (assay): Cell proliferation assay at 10 μM
The subject of one data set is A375. The data set is classed as cell-based, human. The settings on record: for viability at 10 µM: Homo sapiens, read-out: Cell viability observed at 10 μM. How it is done: (§1) The human melanoma cell line A375 and colorectal carcinoma cell line HCT-116 were cultured in Dulbecco's modified Eagle's medium supplemented with 10% fetal bovine serum and 1% Penicillin-Streptomycin. The human leukemia cell line MOLM-14 was cultured in Minimum Essential Medium Alpha Medium supplemented with 10% Fetal Bovine Serum and 1% Penicillin-Streptomycin. All the cell lines were maintained at 37° C. with 5% CO2.
(§2) Briefly, adherent cells, A375 and HCT-116 cells were respectively plated at 800 or 5,000 cells per well onto 96-well plates in 90 μL of media per well and were allowed to grow overnight before the assay.
(§3) Compounds were added at different concentrations to each well, and cell cultures were incubated for 72 h. Vehicle (DMSO or H2O) was used as a control, and all compounds were tested in a constant percentage of vehicle. Cell outgrowth was measured using for adherent cells CellTiter […] Aqueous One Solution Cell Proliferation Assay (Promega) and for cell suspension, Sulforhodamine B colorimetric assay as described in Vichai et al. (Vichai, V. and Kirtikara, K. Nat. Protoc. 2006 (1) 1112-1116). Absorbance was measured using an Infinite F200 Pro or Sunrise TECAN plate reader.
(§4) In each experiment, each point represents the average of two replicates in cell culture.
(§5) Results are presented in Table 1 below for concentrations of 10 μM of tested compounds.

The subject of a further data set is HCT-116. The data set is classed as cell-based. Particulars: Homo sapiens, HCT-116, 72 h. How it is done: as §1, §2, §3, §4, §5
For another data set, the system named is MOLM-14. The data set is classed as cell-based, human. The settings on record: for viability at 10 µM: Homo sapiens, read-out: Cell viability observed at 10 μM. How it is done:
as §1
For MOLM-14 cell line, which grows in suspension, 30,000 cells were plated onto 96-well plates immediately before the assay.
as §3, §4, §5

The mark [1] stands for this setting: A-375, A375, 10 μM, 72 h, % of cell viability remaining.
[2] abbreviates: HCT-116, 10 μM, 72 h, % of cell viability remaining, read-out: Cell viability observed at 10 μM.
Where [3] appears, read: MOLM-14, 10 μM, 72 h, % of cell viability remaining.
Where [4] appears, read: A375, 10 μM, 72 h, % of cell viability remaining.
Where [5] appears, read: read-out: Cell viability observed at 10 μM.

A word on the viability: it is a read-out of living cells in per cent, often relative to untreated cells. Take `CCN(CC)C1CCN(c2cc(-c3ccccc3)nc3ccccc23)CC1` [Compound I-3, 2-phenyl-4-(4-N,N-diethylamino-piperidin-1-yl)quinoline]: the figures for the viability at 10 µM with A375 (setting [1]), in the data set on HCT-116 (setting [2]) and with MOLM-14 (setting [3]) were above 80%, above 80% and 60 to 80%, respectively.

On to `CCN(CC)C1CCN(c2cc(-c3ccccc3)nc3ccccc23)CC1.Cl.Cl` [Compound I-4, 2-phenyl-4-(4-N,N-diethylamino-piperidin-1-yl)quinoline dihydrochloride], for which the “Cell viability observed at 10 μM” value is “− (cell viability %>80)” in the data set with A375 (setting [4]) and “+ (cell viability 60>%<80)” with MOLM-14 (setting [3]).

`c1ccc(-c2cc(N3CCC(N4CCOCC4)CC3)c3ccccc3n2)cc1` [Compound V-2, 2-phenyl-4-[(4-morpholin-4-yl)piperidin-1yl]quinoline dihydrochloride]: the viability at 10 µM with A375 (A-375, 72 h) is above 80%; in the data set with HCT-116 (setting [5]) it was above 80%; with MOLM-14 (MOLM-14, 72 h), 60 to 80%.

For the molecule `CCN(CC)C1CCN(c2cc(-c3ccc(Cl)cc3)nc3ccccc23)CC1` [Compound X-6, 2-(4-chloro-phenyl)-4-(4-N,N-diethylamino-piperidin-1-yl)quinoline dihydrochloride], the viability at 10 µM with A375 (A-375, 72 h) is below 20%; with HCT-116 (setting [5]), below 20%; in the data set with MOLM-14 (MOLM-14, 72 h), 40 to 60%.

Consider `CCN(CC)C1CCN(c2cc(-c3ccccc3)nc3cc(Cl)ccc23)CC1` [II-4, 7-chloro-2-phenyl-4-(4-N,N-diethylamino-piperidin-1-yl)quinoline dihydrochloride], for which the viability at 10 µM with A375 (A-375, 72 h) is below 20%; in the data set on HCT-116 (setting [5]), 20 to 40%; in the data set on MOLM-14 (MOLM-14, 72 h), 60 to 80%.

Regarding `c1ccc(-c2cc(N3CCC(N4CCCCC4)CC3)c3ccccc3n2)cc1` [III-4, 2-phenyl-4-([1,4′]-bipiperidin-1′-yl)quinoline dihydrochloride], the viability at 10 µM was above 80% in the data set on A375 (A-375, 72 h); above 80% in the data set on HCT-116 (setting [5]); 60 to 80% in the data set with MOLM-14 (MOLM-14, 72 h).

In the case of `CC(C)(C)NC1CCN(c2cc(-c3ccccc3)nc3ccccc23)CC1` [IV-2, 2-phenyl-4-(4-N-tert-butylamino-piperidin-1-yl)quinoline dihydrochloride], the viability at 10 µM lay in the range of 40 to 60% in the data set on A375 (A-375, 72 h); 60 to 80% in the data set with HCT-116 (setting [5]); 20 to 40% in the data set on MOLM-14 (MOLM-14, 72 h).

Consider `CCN(CC)C1CCN(c2cc(-c3ccc4ccccc4c3)nc3ccccc23)CC1` [VI-6, 2-(2-naphtyl)-4-(4-N,N-diethylamino-piperidin-1-yl)quinoline dihydrochloride], for which the viability at 10 µM with A375 (A-375, 72 h) is below 20%; in the data set with HCT-116 (setting [5]) it was below 20%; in the data set with MOLM-14 (MOLM-14, 72 h), below 20%.

For the molecule `CCN(CC)C1CCN(c2cc(-c3ccc(Br)cc3)nc3ccccc23)CC1` [VIII-6, 2-(4-bromo-phenyl)-4-(4-N,N-diethylamino-piperidin-1-yl)-quinoline dihydrochloride], the viability at 10 µM with A375 (A-375, 72 h) was below 20%; in the data set with HCT-116 (setting [2]), below 20%; in the data set on MOLM-14 (MOLM-14, 72 h) it was 20 to 40%.

On to `CN(C)CCCNc1cc(-c2ccccc2)nc2ccccc12.Cl.Cl` [XLI-2, N^1,N^1-dimethyl-N^3-(2-phenylquinoline-4-yl)propane-1,3-diamine hydrochloride salt], for which the “Cell viability observed at 10 μM” value with A375 (setting [4]) and with MOLM-14 (setting [3]) was “++++ (cell viability %<20)” each time.

Take `CN(C)CCCNC(=O)c1cc(-c2ccccc2)nc2cc(Cl)ccc12` [XLIII-2, N-[3-(dimethylamino)propyl]-7-chloro-2-phenylquinoline-4-carboxamide hydrochloride salt]: the viability at 10 µM with A375 (A-375, 72 h) was below 20%; with HCT-116 (setting [5]), above 80%; in the data set with MOLM-14 (MOLM-14, 72 h) it was 60 to 80%.

`CN(C)CCCNCc1cc(-c2ccccc2)nc2cc(Cl)ccc12` [XLIV-2, N^1,N^1-dimethyl-N^3-(7-chloro-2-phenylquinoline-4-ylmethyl)-propane-1,3-diamine hydrochloride salt]: the viability at 10 µM in the data set with A375 (A-375, 72 h) is below 20%; with HCT-116 (setting [5]) it was below 20%; in the data set with MOLM-14 (MOLM-14, 72 h) it was below 20%.

`CCN(CC)C1CCN(C(=O)c2cc(-c3ccccc3)nc3ccccc23)CC1` [XVIII-2, 4-[4-(N,N-diethylamino)piperidin-1-ylcarbonyl]-2-phenyl-quinoline dihydrochloride]: the viability at 10 µM in the data set with A375 (setting [1]), in the data set with HCT-116 (setting [2]) and in the data set with MOLM-14 (setting [3]) was above 80% in each case.

With `CCN(CC)C1CCN(Cc2cc(-c3ccccc3)nc3ccccc23)CC1` [XX-5, 2-phenyl-4-[4-(N,N-diethylamino)-piperidin-1-ylmethyl]quinoline dihydrochloride], the viability at 10 µM with A375 (A-375, 72 h) was 60 to 80%; in the data set with HCT-116 (setting [5]), above 80%; in the data set with MOLM-14 (MOLM-14, 72 h), 40 to 60%.

As for `CC(c1cc(-c2ccccc2)nc2ccccc12)N1CCC(N(CCc2ccccc2)Cc2ccccc2)CC1` (stereo not shown) [XXI-4, 2-phenyl-4-{1-{4-[benzyl(phenethyl)amino]-piperidin-1-yl}-eth-1-yl}quinoline dihydrochloride], the viability at 10 µM in the data set on A375 (A-375, 72 h) was above 80%; in the data set on HCT-116 (setting [5]), above 80%; in the data set on MOLM-14 (MOLM-14, 72 h) it was above 80%.

`CN(c1cc(-c2ccccc2)nc2cc(Cl)ccc12)C1CCN(Cc2ccccc2)CC1` [XXIX-2, 7-chloro-2-phenyl-4-[N-methyl-N—(N-benzylpiperidin-4-yl)-amino]quinoline hydrochloride salt]: the viability at 10 µM with A375 (setting [1]), in the data set with HCT-116 (setting [2]) and in the data set with MOLM-14 (setting [3]) was above 80% each time.

Take `CCN(CC)CC1CCN(c2cc(-c3ccccc3)nc3cc(Cl)ccc23)CC1` [XXVI-4, 7-chloro-2-phenyl-4-[4-(N,N-diethylaminomethyl)-piperidin-1-yl]-quinoline hydrochloride salt]: the viability at 10 µM with A375 (A-375, 72 h) is above 80%; with HCT-116 (setting [5]), above 80%; in the data set with MOLM-14 (MOLM-14, 72 h) it was above 80%.

Consider `CCN(CC)CC1CCN(c2cc(-c3ccccc3)nc3ccccc23)CC1` [XXVII-2, 2-phenyl-4-[4-(N,N-diethylaminomethyl)-piperidin-1-yl)quinoline hydrochloride salt], for which the viability at 10 µM in the data set with A375 (A-375, 72 h) was 20 to 40%; in the data set with HCT-116 (setting [5]), above 80%; with MOLM-14 (MOLM-14, 72 h), 40 to 60%.

`CC(c1ccccc1)N1CCC(N(C)c2cc(-c3ccccc3)nc3cc(Cl)ccc23)CC1` (stereo not shown) [XXX-2, 7-chloro-2-phenyl-4-[N-methyl-N—(N-1-phenylethyl-piperidin-4-yl)-amino]quinoline]: the viability at 10 µM is above 80% with A375 (A-375, 72 h); above 80% in the data set on HCT-116 (read-out: Cell viability observed at 10 μM, HCT-116, 10 μM, 72 h, % of cell viability remaining); 60 to 80% in the data set with MOLM-14 (MOLM-14, 72 h).

In the case of `CC(c1ccccc1)N1CCC(N(C)c2cc(-c3ccccc3)nc3ccccc23)CC1` (stereo not shown) [XXXI-2, 2-phenyl-4-[N-methyl-N—(N-1-phenylethyl-piperidin-4-yl)-amino]quinoline hydrochloride salt], the viability at 10 µM in the data set on A375 (setting [1]), with HCT-116 (setting [2]) and in the data set with MOLM-14 (setting [3]) was above 80% in each case.

For the molecule `O=C(NC1CCN(Cc2ccccc2)CC1)c1cc(-c2ccccc2)nc2cc(Cl)ccc12` [XXXII-2, N-(1-benzylpiperidin-4-yl)-7-chloro-2-phenylquinoline-4-carboxamide hydrochloride salt], the viability at 10 µM in the data set with A375 (A-375, 72 h) is above 80%; in the data set on HCT-116 (setting [5]) it was above 80%; with MOLM-14 (MOLM-14, 72 h), 40 to 60%.

Regarding `CC(NC1CCN(Cc2ccccc2)CC1)c1cc(-c2ccccc2)nc2ccccc12` (stereo not shown) [XXXIV-2, 2-phenyl-4-{1-[(N-benzyl-piperidin-4-yl)amino]-eth-1-yl}quinoline hydrochloride salt], the viability at 10 µM in the data set on A375 (A-375, 72 h) was below 20%; in the data set with HCT-116 (setting [5]) it was 20 to 40%; in the data set on MOLM-14 (MOLM-14, 72 h), 40 to 60%.

With `CN(C)CCCN(C)c1cc(-c2ccc3ccccc3c2)nc2ccccc12` [XXXIX-2, N^1,N^1,N^3-trimethyl-N^3-[2-(naphthalen-2-yl)-quinoline-4-yl]-propane-1,3-diamine hydrochloride salt], the viability at 10 µM is below 20% with A375 (A-375, 72 h); below 20% in the data set on HCT-116 (setting [5]); below 20% with MOLM-14 (MOLM-14, 72 h).

With `CC(NC1CCN(Cc2ccccc2)CC1)c1cc(-c2ccccc2)nc2cc(Cl)ccc12` (stereo not shown) [XXXV-2, 7-chloro-2-phenyl-4-{1-[(N-benzyl-piperidin-4-yl)amino]-eth-1-yl}quinoline hydrochloride salt], the viability at 10 µM in the data set with A375 (A-375, 72 h) is above 80%; in the data set with HCT-116 (setting [5]), above 80%; with MOLM-14 (MOLM-14, 72 h), above 80%.
